Test systems include K-562 leukemia; NCI-H522 lung; UACC-62 melanoma; SNB-19 CNS; SF-295 CNS; LOX IMVI melanoma; COLO 205 colon; MALME-3M melanoma; UACC-257 melanoma; SK-MEL-28 melanoma.
Common to all, as to experiment: growth of human tumour cells (NCI), 48 h

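Method: 48-hour compound exposure of cells in 96-well plates, five concentrations, linear interpolation of endpoints. GI50 marks 50% less growth. TGI denotes the concentration required for complete inhibition of growth.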

For the molecule `CCN(CC)CCOc1ccc(Nc2ncc3cc(-c4c(Cl)cccc4Cl)c(=O)n(CCOC)c3n2)cc1`, the GI50 in the experiment with K-562 leukemia was 0.005 µM; in the experiment on NCI-H522 lung, 0.134 µM; in the experiment on UACC-62 melanoma, 0.206 µM; in the experiment with SNB-19 CNS, 0.458 µM; in the experiment with SF-295 CNS, 0.375 µM; in the experiment with LOX IMVI melanoma it was 0.0318 µM. Besides, the GI50 in the experiment on COLO 205 colon is 0.148 µM; in the experiment with MALME-3M melanoma, 0.39 µM; in the experiment with UACC-257 melanoma, 0.881 µM; in the experiment on SK-MEL-28 melanoma it was 1.71 µM. For the same molecule, the TGI with K-562 leukemia amounted to 18.2 µM; in the experiment with NCI-H522 lung, 1.8 µM; in the experiment on UACC-62 melanoma it was 7.04 µM; in the experiment on SNB-19 CNS, 6.01 µM; in the experiment with SF-295 CNS it was 6.07 µM; in the experiment with LOX IMVI melanoma, 0.153 µM. Besides, the TGI in the experiment on COLO 205 colon is 2.43 µM; in the experiment with MALME-3M melanoma, 3.95 µM; with UACC-257 melanoma, 4.58 µM; in the experiment with SK-MEL-28 melanoma it was 8.97 µM.
As for `OCCCCC#Cc1ccccc1C#Cc1ccccc1F`, the GI50 was 23.2 µM with K-562 leukemia; 16.3 µM in the experiment on NCI-H522 lung; 16.5 µM in the experiment with UACC-62 melanoma; 17.5 µM with SNB-19 CNS; 21.6 µM in the experiment with SF-295 CNS; 17.4 µM in the experiment on LOX IMVI melanoma. Also, the GI50 in the experiment with COLO 205 colon was 16.4 µM; in the experiment on MALME-3M melanoma, 26.1 µM; with UACC-257 melanoma, 18.9 µM; in the experiment on SK-MEL-28 melanoma, 27.3 µM. The TGI in the experiment on K-562 leukemia turned out to be 47.2 µM; with NCI-H522 lung, 32.6 µM; in the experiment with UACC-62 melanoma, 32.6 µM; in the experiment with SNB-19 CNS, 36.8 µM; in the experiment with SF-295 CNS it was 42.7 µM; with LOX IMVI melanoma, 31.6 µM. Besides, the TGI came to 31.3 µM in the experiment with COLO 205 colon, 46.9 µM in the experiment on MALME-3M melanoma, 39.2 µM in the experiment on UACC-257 melanoma and 72.9 µM with SK-MEL-28 melanoma.
In the case of `C=C1C(=O)O[C@H]2[C@H]1CC/C(CNC(=O)/C=C/c1cccc(OC)c1)=C\CC[C@@]1(C)O[C@@H]21`, the GI50 is 1.31 µM in the experiment with K-562 leukemia; 0.435 µM in the experiment on NCI-H522 lung; 1.43 µM in the experiment on UACC-62 melanoma; 3.22 µM in the experiment with SNB-19 CNS; 5.54 µM in the experiment with SF-295 CNS; 1.28 µM in the experiment on LOX IMVI melanoma. The GI50 was 1.34 µM with COLO 205 colon, 1.48 µM with MALME-3M melanoma, 1.45 µM in the experiment with UACC-257 melanoma and 1.74 µM in the experiment with SK-MEL-28 melanoma. The TGI amounted to 18.6 µM in the experiment on K-562 leukemia; 1.77 µM with NCI-H522 lung; 2.92 µM with UACC-62 melanoma; 13.5 µM with SNB-19 CNS; 19.3 µM in the experiment with SF-295 CNS; 2.63 µM in the experiment with LOX IMVI melanoma. The TGI was 2.85 µM with COLO 205 colon, 3.3 µM in the experiment on MALME-3M melanoma, 2.98 µM in the experiment on UACC-257 melanoma and 4.23 µM with SK-MEL-28 melanoma.
`O=c1[nH]cnc2c1nnn2C1OC(CO)C(O)C1O` (stereo not given): the GI50 in the experiment on K-562 leukemia was 3.97 µM; in the experiment on NCI-H522 lung, 1.48 µM; in the experiment on UACC-62 melanoma it was 4.65 µM; with SNB-19 CNS, 19.6 µM; in the experiment on SF-295 CNS, 1.71 µM; in the experiment on LOX IMVI melanoma, 0.779 µM. The GI50 in the experiment on COLO 205 colon is 1.44 µM; with MALME-3M melanoma, 2.64 µM; in the experiment with UACC-257 melanoma it was 12.3 µM; with SK-MEL-28 melanoma, 16.7 µM. Also, the TGI in the experiment with K-562 leukemia was > 100 µM; in the experiment with NCI-H522 lung, 14 µM; with UACC-62 melanoma it was 42.8 µM; in the experiment on SNB-19 CNS, > 100 µM; with SF-295 CNS it was > 65.7 µM; in the experiment on LOX IMVI melanoma, > 100 µM. For the same molecule, the TGI was 9.94 µM in the experiment on COLO 205 colon, > 59 µM with MALME-3M melanoma, > 100 µM with UACC-257 melanoma and > 100 µM with SK-MEL-28 melanoma.
Turning to `CCCCCCCCCCCCCCCC(=O)OCC1OC(n2cnc3c(=S)nc(N)[nH]c32)C(OC(=O)CCCCCCCCCCCCCCC)C1OC(=O)CCCCCCCCCCCCCCC` (stereo not given), the GI50 with K-562 leukemia was 2.05 µM; in the experiment with NCI-H522 lung it was 4.82 µM; in the experiment with UACC-62 melanoma, 3.35 µM; in the experiment with SNB-19 CNS, > 50 µM; in the experiment on SF-295 CNS it was 1.63 µM; with LOX IMVI melanoma, 1.54 µM. The GI50 is 7.39 µM with COLO 205 colon, > 28.3 µM in the experiment with MALME-3M melanoma, > 50 µM in the experiment on UACC-257 melanoma and > 39 µM with SK-MEL-28 melanoma. Also, the TGI with K-562 leukemia is > 50 µM; in the experiment with NCI-H522 lung, > 47.4 µM; in the experiment on UACC-62 melanoma, > 21.5 µM; in the experiment on SNB-19 CNS it was > 50 µM; with SF-295 CNS it was 24.4 µM; in the experiment with LOX IMVI melanoma it was > 50 µM. Also, the TGI in the experiment with COLO 205 colon is 35.8 µM; with MALME-3M melanoma, > 50 µM; in the experiment on UACC-257 melanoma, > 50 µM; in the experiment with SK-MEL-28 melanoma, > 50 µM.
With `N#Cc1cccc(C(=O)c2cnn(-c3ccc(F)cc3)c2N)c1`, the GI50 in the experiment on K-562 leukemia was > 25 µM; in the experiment with NCI-H522 lung, > 25 µM; with UACC-62 melanoma, > 25 µM; in the experiment on SNB-19 CNS it was > 25 µM; in the experiment with SF-295 CNS, > 20.1 µM; with LOX IMVI melanoma, > 25 µM. Moreover, the GI50 in the experiment with COLO 205 colon, in the experiment with MALME-3M melanoma, in the experiment with UACC-257 melanoma and with SK-MEL-28 melanoma was > 25 µM throughout. For the same molecule, the TGI in the experiment with K-562 leukemia, with NCI-H522 lung, in the experiment with UACC-62 melanoma, in the experiment with SNB-19 CNS, with SF-295 CNS and in the experiment with LOX IMVI melanoma was > 25 µM throughout. The TGI with COLO 205 colon, in the experiment on MALME-3M melanoma, in the experiment on UACC-257 melanoma and in the experiment on SK-MEL-28 melanoma was > 25 µM in each case.
Take `O=C(Nc1ccc(Cl)cc1)c1cc2c(cc1O)[nH]c1ccccc12`: the GI50 in the experiment with K-562 leukemia is 4.28 µM; with NCI-H522 lung it was 2.88 µM; with UACC-62 melanoma it was 2.49 µM; in the experiment with SNB-19 CNS, 3.43 µM; in the experiment with SF-295 CNS, 1.67 µM; in the experiment with LOX IMVI melanoma it was 3.48 µM. Moreover, the GI50 in the experiment on COLO 205 colon is 2.39 µM; with MALME-3M melanoma it was 2.45 µM; with UACC-257 melanoma, 2.48 µM; with SK-MEL-28 melanoma, 4.41 µM. Also, the TGI in the experiment with K-562 leukemia is > 100 µM; with NCI-H522 lung, 10.6 µM; in the experiment on UACC-62 melanoma, 8.89 µM; in the experiment on SNB-19 CNS, 30.6 µM; in the experiment on SF-295 CNS, 3.87 µM; in the experiment on LOX IMVI melanoma it was 13.1 µM. For the same molecule, the TGI with COLO 205 colon amounted to 5.53 µM; with MALME-3M melanoma, 5.76 µM; in the experiment on UACC-257 melanoma, 6.66 µM; with SK-MEL-28 melanoma, 15.5 µM.

These data come from PubChem BioAssay (NCI).
